In article PMC10115881, “Disrupting the α-synuclein-ESCRT interaction with a peptide inhibitor mitigates neurodegeneration in preclinical models of Parkinson’s disease” (Nature Communications, 2023):

Columns and labels:
a-syn-CHMP2B interaction = assay: Proximity ligation assay, endogenous a-syn-CHMP2B in rat cortical neurons; format: cell-based
Description: PLA was performed on fixed primary neurons using Duolink® in situ red starter kit mouse/rabbit (Sigma–Aldrich) according to the manufacturer’s instructions. Fixed neurons were permeabilized with 0.1% Triton-X-100 in PBS for 10 min, washed three times with PBS, and incubated with blocking solution for 30 min at 37 °C in a humidity chamber. Primary antibodies (mouse anti-a-syn (clone 42) (BD Biosciences, catalog #610787, 1:500) and rabbit anti-CHMP2B (Abcam, catalog #ab33174, 1:50)) were diluted using antibody diluent. After blocking, neurons were incubated with primary antibodies at room temperature for 1 h in a humidity chamber. Coverslips were washed with wash buffer A two times for 5 min and then incubated with PLA probe solution (anti-mouse minus and anti-rabbit plus) for 1 h at 37 °C in a humidity chamber. Coverslips were washed with wash buffer A two times for 5 min. For the ligation step, 5× ligation buffer was diluted 1:5 in high purity water and ligase was added to the 1× ligation buffer at 1:40 dilution. After the wash, coverslips were incubated in the diluted ligase for 30 min at 37 °C in a humidity chamber. Post-ligation, coverslips were washed with wash buffer A two times for 5 min. For the amplification step, 5× amplification buffer was diluted 1:5 in high purity water and polymerase was added to the 1× amplification buffer at 1:80 dilution. […]

VPS4B-CHMP2B interaction = assay: Co-immunoprecipitation: disruption of VPS4B-CHMP interaction; format: cell-based
Description: HEK293T cells were co-transfected with Flag-tagged target protein, HA-tagged source protein, and GFP-tagged peptide or GFP. Cells were lysed 48 h after transfections with radioimmune precipitation assay buffer (50 mM Tris-HCl pH 7.4, 1% Nonidet P-40, 150 mM NaCl, 1 mM EDTA, 10 mM Na3VO4, 10 mM sodium pyrophosphate, 25 mM NaF, 1× protease inhibitor mixture (Sigma)) for 30 min at 4 °C and co-immunoprecipitated with Flag beads (Clontech). The resulting immunocomplexes were analyzed by immunoblot using the appropriate antibodies. Protein samples were separated using 4–20% Mini-PROTEAN Tris-glycine gels (Bio-Rad) transferred to PVDF membranes and blocked in 5% milk containing PBS-Tween-20 (0.1%) for 1 h. PVDF membranes were then incubated with specified primary antibodies followed by incubation with horseradish peroxidase-conjugated secondary antibodies (anti-mouse HRP-linked, Cell Signaling, catalog #7076, 1:5000; anti-rabbit HRP-linked, Cell Signaling, catalog #7074, 1:5000) and detected using enhanced chemiluminescence (GE Healthcare). HA antibodies were obtained from Santa Cruz (catalog #7392, 1:2000), GFP antibodies were purchased from Abcam (catalog #ab290, 1:2000), and Flag antibodies were purchased from Sigma (catalog #A8592, 1:1000).

DEEIERQLKALG [PDpep1.3]
Effect on a-syn-CHMP2B interaction, PLA (a-syn-CHMP2B interaction): reduction of the interaction between endogenous WT a-syn and CHMP2B | Effect on VPS4B-CHMP2B interaction (VPS4B-CHMP2B interaction): inhibits the CHMP2B-VPS4 interaction
